{"source": "paper PMC2967836", "about": "“Immobilization and Characterization of a Recombinant Thermostable Lipase (Pf2001) from Pyrococcus furiosus on Supports with Different Degrees of Hydrophobicity” (Enzyme Research, 2010)", "biological_target": "T1, Pf2001Δ60 (recombinant thermostable lipase Pf2001) (Pyrococcus furiosus, UniProt Q8TZJ1)", "T1 construct": "expressed in E. coli BL21 (DE3) pLysS; crude extract supernatant", "T1 sequence (Q8TZJ1 entry or part of it, stated change not applied)": "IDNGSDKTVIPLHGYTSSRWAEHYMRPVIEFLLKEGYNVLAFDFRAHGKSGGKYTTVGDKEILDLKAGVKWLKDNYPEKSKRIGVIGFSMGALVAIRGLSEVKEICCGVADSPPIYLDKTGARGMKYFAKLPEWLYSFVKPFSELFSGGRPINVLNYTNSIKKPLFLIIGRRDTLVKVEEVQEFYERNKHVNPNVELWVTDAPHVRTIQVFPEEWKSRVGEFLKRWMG", "experiment": "fluorescence release of 4-methylumbelliferone (ex […] nm, em […] nm)", "format": "biochemical", "conditions": "crude extract of E. coli expressing the enzyme; pH 7.0, 50 mM sodium phosphate, 0.1% gum arabic, 70 °C; soluble enzyme (also measured immobilised)"}
{"smiles": "CCCCCCC(=O)Oc1ccc2c(C)cc(=O)oc2c1", "note": "[4-Methylumbelliferyl-heptanoate]", "values": [{"measurement": "fluorescence release of 4-methylumbelliferone (ex 323 nm, em 448 nm)", "result": "Enzyme activity was measured according to the method described by Prim et al."}]}
